Test results from US20030083292A1, “Inhibitors of DNA methyltransferase isoforms” (priority 2001, published 2003).

Tests used:
[1] = test system: MRHF (foreskin fibroblasts); assay: Apoptosis in normal cells, MRHF; assay type: cell-based, human; details: 75 nM, 48 hrs
Method: (§1) In order to determine the effects of DNMT3a and DNMT3b inhibition on apoptosis of cancer cells, various cancer cell lines (A549 or T24 cells, MDAmb231) were exposed to the DNMT3a and DNMT3b AS-ODN for various periods of time and the effects on apoptosis were determined. For the analysis of apoptosis (active cell death), cells were analyzed using the Cell Death Detection ELISA ^Plus kit (Roche Diagnostic GmBH, Mannheim, Germany) according to the manufacturer's directions. Typically, 10,000 cells were plated in 96-well tissue culture dishes for 2 hours before harvest and lysis. Each sample was analyzed in duplicate. ELISA reading was done using a MR700 plate reader (DYNEX Technology, Ashford, Middlesex, England) at 410 nm. The reference was set at 490 nm.
(§2) The effect of DNMT3b inhibition on the induction of apoptosis in normal cells was also determined, the results of which are presented in FIG. 10. HMEC (human mammary epithelial cells, ATCC, Manassas, Va.) and MRHF (foreskin fibroblasts, ATCC, Manassas, Va.) were treated with 75 nM of DNMT3b AS (SEQ ID NO: 18) or its mismatch control SEQ ID NO: 19 for 48 hrs as previously described for human cancer cells.

[2] = test system: A549 human non small cell lung cancer cells; assay: Apoptosis, Cell Death Detection ELISA Plus, A549 cells; assay type: cell-based
Method: as §1

DNMT1 mRNA = assay: Northern blot, non target mRNA DNMT1; assay type: cell-based, human; details: A549 cells
DNMT3b protein = assay: Western blot of DNMT3b protein level; assay type: cell-based, human; details: 0-75 nM, 48 hrs
Method: In order to determine whether treatment with DNMT3a or DNMT3b AS-ODNs would inhibit expression at the protein level, antibodies specific for either DNMT3a or DNMT3b were produced for use in western blots. DNMT3b is expressed at sufficiently high levels in human cancer cells to be detected by our DNMT3b antibody. However, DNMT3a is not expressed at detectable levels. Therefore, both human A549 non small cell lung cancer cells and T24 human bladder cancer cells were treated with doses of the DNMT3b antisense inhibitor (SEQ ID NO: 18) ranging from 0-75 nM for 48 hours and then measured DNMT3b protein levels by Western blot.
Briefly, cells were lysed in buffer containing 1% Triton X-100, 0.5% sodium deoxycholate, 5 mM EDTA, 25 mM Tris-HC1, pH 7.5, plus protease inhibitors. Total protein was quantified by the protein assay reagent from Bio-Rad (Hercules, Calif.). 100 ug of total protein was analyzed by SDS-PAGE. Next, total protein was transferred onto a PVDF membrane and probed with DNMT3b specific antibody. Anti-DNMT3b antibody was raised by immunizing rabbits with a GST fusion protein containing a fragment of the DNMT3b protein (amino acids 4-101 of GenBank Accession No. NM_006892). Rabbit antiserum was tested and found only to react specifically to the human DNMT3b isoform. DNMT3b antiserum was used at 1:500 dilution in Western blots to detect DNA MeTase-6 in total cell lysates. Horse Radish Peroxidase conjugated secondary antibody was used at a dilution of 1:5000 to detect primary antibody binding. The secondary antibody binding was visualized by use of the Enhanced chemiluminescence (ECL) detection kit (Amersham-Pharmacia Biotech., Inc., Piscataway, N.J.).

DNMT3b mRNA = assay: Northern blot of DNMT3b mRNA expression after antisense treatment; assay type: cell-based, human; details: A549 cells
Method: (§3) To identify antisense oligodeoxynucleotide (ODN) capable of inhibiting DNMT3a or DNMT3b expression in human cancer cells, antisense oligonucleotides were initially screened in T24 (human blader) A549 (human non small cell lung cancers cells at 100 nM. Cells were harvested after 24 hours of treatment, and DNMT3a or DNMT3b RNA expression was analyzed by Northern blot analysis.
(§4) Active oligonucleotides identified in initial screens were then synthesized with phosporothiate backbone modification and 2′-O-methyl modifications of the sugar on the four 5′ and 3′ nucleotides. […] Human A549 or T24 cells were treated with increasing doses of antisense (AS) oligonucleotide from 0-75 nM for 24 hours.
(§5) Briefly, human A549 or T24 human bladder carcinoma cells were seeded in 10 cm tissue culture dishes one day prior to oligonucleotide treatment. The cell lines were obtained from the American Type Culture Collection (ATCC) (Manassas, Va.) and were grown under the recommended culture conditions. Before the addition of the oligonucleotides, cells were washed with PBS (phosphate buffered saline). Next, lipofectin transfection reagent (GIBCO BRL Mississauga, Ontario, Calif.), at a concentration of 6.25 μg/ml, was added to serum free OPTIMEM medium (GIBCO BRL, Rockville, Md.), which was then added to the cells. The oligonucleotides to be screened were then added directly to the cells (i.e., one oligonucleotide per plate of cells).
Cells were harvested, and total RNAs were analyzed by Northern blot analysis. Briefly, total RNA was extracted using RNeasy miniprep columns (QIAGEN). Ten to twenty μg of total RNA was run on a formaldehyde-containing 1% agarose gel with 0.5 M sodium phosphate (pH 7.0) as the buffer system. RNAs were then transferred to nitrocellulose membranes and hybridized with the radiolabelled DNA probes specific for DNMT3a or DNMT3b messenger RNA. Autoradiography was performed using conventional procedures.

[3] = test system: HMEC (human mammary epithelial cells); assay: Apoptosis in normal cells, HMEC; assay type: cell-based; details: 75 nM, 48 hrs
Method: as §1, §2

DNMT3a mRNA = assay: Northern blot of DNMT3a mRNA expression after antisense treatment; assay type: cell-based, human; details: A549 cells
Method: as §3, §4
as §5, with “The oligonucleotides to be screened were then added directly to the cells (i.e., one oligonucleotide per plate of cells).” left out
Cells were harvested, and total RNAs were analyzed by Northern blot analysis. […]

[4] = test system: Glyceraldehyde 3′-phosphate dehydrogenase mRNA; assay: Northern blot, non target mRNA Glyceraldehyde 3′-phosphate dehydrogenase; assay type: cell-based, human; details: A549 cells
Method: as §4, §5
Cells were harvested, and total RNAs were analyzed by Northern blot analysis. Briefly, total RNA was extracted using RNeasy miniprep columns (QIAGEN). Ten to twenty μg of total RNA was run on a formaldehyde-containing 1% agarose gel with 0.5 M sodium phosphate (pH 7.0) as the buffer system. […]

| Substance | apoptosis [1] | apoptosis [2] | expression of non target mRNA DNMT1 (DNMT1 mRNA) | level of DNMT3b protein (DNMT3b protein; A549 human non small cell lung cancer cells) | level of DNMT3b protein (DNMT3b protein; A549 human non small cell lung cancer cells, listed as MG3741) | level of DNMT3b protein (DNMT3b protein; T24 human bladder cancer cells) | level of DNMT3b protein (DNMT3b protein; T24 human bladder cancer cells, listed as MG3741) | expression of DNMT3b mRNA (DNMT3b mRNA) | IC50 (DNMT3b mRNA; 0-75 nM, 24 hours, read-out: estimated IC50 value, inhibition of DNMT3b expression) | apoptosis [3] | expression of DNMT3a mRNA (DNMT3a mRNA) | expression of non target mRNA Glyceraldehyde 3′-phosphate dehydrogenase [4] |
| --- | --- | --- | --- | --- | --- | --- | --- | --- | --- | --- | --- | --- |
| SEQ ID NO: 18: DNMT3B AS, 3′UTR (3993), PTI, 5′cgtcgtggctccagttacaa3′ (antisense CGTCGTGGCTCCAGTTACAA; DNA, all phosphorothioate, methylation of C not given here) | no apoptosis | induced apotosis | not effected | dose dependent effect | inhibits | dose dependent effect | inhibits | dose dependent inhibition | ~25 nM | no apoptosis | not effected | not effected |
| SEQ ID NO: 33: DNMT3A AS, 3′UTR (4045), PTI, 5′cgtgagaacgcgccatctgc3′ (antisense CGTGAGAACGCGCCATCTGC; DNA, all phosphorothioate, methylation of C not given here) |  |  | not effected |  |  |  |  | not effected |  |  | dose dependent effect | not effected |
